From patent EP1075256B1, “ARYLHYDROCARBON RECEPTOR LIGAND ANTAGONISTS” (priority 1998, dated 1999) come the findings set out here.

Each structure is given as a SMILES string.

As usually defined, the inhibition is the relative decrease from the control value, in per cent.

The subject of data set [1] is éléments de réponse aux androgènes (ARE). Briefly: Transient CAT reporter under androgen response element (ARE) in T-47D cells. It is filed as cell-based. The source says: (§1) On a transfecté de façon transitoire les cellules T-47D avec différentes constructions CAT sous contrôle de l'élément de réponse à l'estradiol (ERE) du gène de la vitellogénine ou celui, plus faible, du gène du récepteur de la progestérone, ainsi que des éléments de réponse à la progestérone (PRE) et aux androgènes (ARE) du virus murin MMTV et d'un élément de réponse à la vitamine D (VDRE) synthétique.

For data set [2], the system named is élément de réponse à l'estradiol (ERE) du gène de la vitellogénine. Description: Transient CAT reporter under estradiol response element (ERE) in T-47D cells. It is filed as cell-based.
From the text: as §1

Data set [3] has as its system élément de réponse à la dioxine. Briefly: CAT reporter gene under control of a dioxin response element (DRE), stably transfected T-47D cells. The class given is cell-based. The settings on record: figure 1A, 10^-6 M de Resvératrol. The source says: Les inventeurs ont entrepris d'identifier de nouveaux ligands du récepteur AhR. Pour ce faire, ils ont transfecté de façon stable une lignée de cellules de cancer du sein, T-47D, avec un gène rapporteur (la trans-acétylase du chloramphénicol, ou CAT) placé sous le contrôle d'un élément de réponse à la dioxine ou DRE. La lignée T-47D est connue pour contenir un taux élevé de récepteur AhR (170 femtomoles/mg protéines).
On transfecte de manière stable la lignée T-47D de cellules de cancer du sein avec un gène rapporteur, la trans-acétylase du chloramphénicol, CAT en abrégé, placé sous le contrôle d'un élément de réponse à la dioxine.
On constate que l'inhibition observée est dose-dépendante.
A general note: Reporter assays use an easily measured gene product as a stand-in for the process of interest.

The test system of data set [4] is élément de réponse à la vitamine D (VDRE). Briefly: Transient CAT reporter under vitamin D response element (VDRE) in T-47D cells. It is filed as cell-based.
From the text: as §1

In data set [5] the test system is promoteur de la séquence répétée (LTR) de VIH-1. Briefly: HIV-1 LTR promoter CAT construct (-452/+77) transfected in T-47D cells. It is filed as cell-based. The note with it: dioxine 10^-9 M. The source says: On a transfecté les cellules T-47D avec une construction CAT contenant ce promoteur (-452/+77).
Data set [6] relates to éléments de réponse à la progestérone (PRE). Description: Transient CAT reporter under progesterone response element (PRE) in T-47D cells. It is filed as cell-based.
From the text: as §1

For the next data set, the target named is T1, récepteur AhR (Oryctolagus cuniculus, UniProt O02747).
T1 construct: On a utilisé un cytosol de foie de lapin pour ces études de compétition; from tissue; host or cells: rabbit liver cytosol
T1 sequence (O02747 1-847): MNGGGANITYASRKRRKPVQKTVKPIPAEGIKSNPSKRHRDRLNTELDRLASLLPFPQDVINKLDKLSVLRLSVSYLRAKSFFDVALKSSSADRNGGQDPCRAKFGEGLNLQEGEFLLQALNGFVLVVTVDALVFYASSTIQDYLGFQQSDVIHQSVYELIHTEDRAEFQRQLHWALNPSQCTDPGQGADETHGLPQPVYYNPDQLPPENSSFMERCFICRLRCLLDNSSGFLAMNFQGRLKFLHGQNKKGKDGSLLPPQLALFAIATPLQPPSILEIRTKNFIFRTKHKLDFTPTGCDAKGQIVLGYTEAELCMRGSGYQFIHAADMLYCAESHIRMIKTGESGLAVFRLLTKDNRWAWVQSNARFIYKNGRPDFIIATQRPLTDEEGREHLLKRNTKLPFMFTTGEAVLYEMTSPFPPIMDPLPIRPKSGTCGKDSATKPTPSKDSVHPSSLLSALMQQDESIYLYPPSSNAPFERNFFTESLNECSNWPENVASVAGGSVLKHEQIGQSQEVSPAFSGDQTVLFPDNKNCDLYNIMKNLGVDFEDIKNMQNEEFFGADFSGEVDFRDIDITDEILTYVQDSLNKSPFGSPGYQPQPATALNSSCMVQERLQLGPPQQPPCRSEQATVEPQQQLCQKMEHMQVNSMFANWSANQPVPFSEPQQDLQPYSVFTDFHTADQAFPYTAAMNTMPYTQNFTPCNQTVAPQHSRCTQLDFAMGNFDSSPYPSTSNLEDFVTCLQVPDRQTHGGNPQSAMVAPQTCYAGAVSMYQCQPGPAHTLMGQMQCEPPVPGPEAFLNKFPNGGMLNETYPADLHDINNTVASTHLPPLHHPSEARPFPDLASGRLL
Briefly: Competition with tritiated dioxin for binding to the AhR receptor in rabbit liver cytosol. Set-up: species or system lapin. The settings on record: for Kd: displacement of labelled dioxin, read-out: Kd apparent (converted).

Another data set deals with CYP1A1. Description: Induction of Cyp1A1 protein by dioxin in T-47D cells (Western blot). It is filed as cell-based. The settings on record: for effets agonistes / antagonistes: 10^-5M. As to the method: Les cellules sont collectées et lavées dans le PBS, puis lysées par fusion-congélation répétée en conditions isotoniques. 75 µg de protéines sont analysées par électrophorèse en gel de polyacrylamide en conditions dénaturantes. Le gel est transféré sur une membrane de nylon. La membrane est saturée avec 5 % de lait écrémé et incubée avec un anticorps polyclonal de lapin (Daiichi Pure Chemicals Co, Japan) contre Cyp1A1. Les immuncomplexes sont détectés par chimioluminescence avec le kit Renaissance (DuPont). La figure 2 correspond à la photo du Western blot. La flèche montre la bande spécifique de Cyp1A1, les astérisques signalent des bandes non-spécifiques.
(Immunoblotting shows a protein as a band on a membrane.)

The subject of data set [7] is NAD(P)H quinone réductase. Description: NAD(P)H quinone reductase (NQOR) activity in T-47D cells. The note with it: 10^-6 M, dioxine 10^-9 M, 72 h. It is filed as cell-based. From the text: L'activité NQOR correspondante exprimée en nanomoles de cytochrome c réduit, par mg de protéines, par min, est donnée sur la figure 5.
A further data set has as its system cyp 1A1. Briefly: In vivo induction of cyp 1A1 in rats by BaP/DMBA (immunoblot of lung and kidney). The settings on record: equal concentration of substances (1 mg/kg BaP/DMBA plus 1 mg/kg resvératrol). Also noted: species or system rats Sprague-Dawley. As to the method: Des rats Sprague-Dawley femelle ont été traités par une combinaison de Benzol [a]pyrène et de DMBA (diméthylbenzanthracène), deux ligands AhR présents dans la fumée de cigarette. Des expériences préliminaires ont montré que cyp 1A1 était induit à partir de 1 mg/kg des deux ligands administrés ensemble. […] Les animaux ont été sacrifiés et les organes prélevés. Des extraits cellulaires totaux ont été préparés et analysés par immunoblot pour détecter l'expression de cyp 1A1 dans ces tissus.

Consider `Oc1ccc(/C=C/c2cc(O)cc(O)c2)cc1` [Resvératrol, trans-resvératrol], for which the “effet sur ARE” value in data set [1] is listed as “aucun effet”. In addition, the “effet estrogénique sur l'ERE, fraction of the effect of estradiol” value in [2] (T-47D, CAT) was 1/500.000. Further, the “effet estrogénique, fraction of the effect of 10^-10 M estradiol” value in data set [2] (from 10^-5 M Resvératrol) was 1/5. Moreover, the “effet sur l'induction de CAT par TCDD” value in data set [3] is “effet inhibiteur”. Also, the “effet sur VDRE” value in [4] is “aucun effet”. Besides, the “suppression de l'induction du promoteur de VIH par la dioxine” value in data set [5] (Resvératrol 10^-6 M) is “totalement supprimée”. For the same molecule, the “effet sur PRE” value in [6] is recorded as “aucun effet”. The “affinité compared with indole-3-carbinol” value at récepteur AhR is given as “affinité plus forte”. Also, the “effets agonistes / antagonistes” value in the data set with CYP1A1 is “pur antagoniste”. Further, the inhibition at 1 µM in the data set on CYP1A1 (Homo sapiens, T47D, 48 h, read-out: inhibition de l'induction de la protéine CYP1A1) is approximately 60%. In addition, the “excès nécessaire pour observer l'inhibition ex vivo” value with CYP1A1 (ex vivo) is 5000 fois. In addition, in the data set on CYP1A1 (induction of CYP1A1 by TCDD, T-47D), the “effet inhibiteur compared with α-naphthoflavone” value is on record as “légérement inférieur”. In addition, the “répression de l'induction indirecte des enzymes de phase II (NAD(P)H quinone réductase) provoquée par la dioxine” value in [7] is given as “ne répriment l'induction indirecte”. For the same molecule, the “suppression de l'induction de cyp 1A1 in vivo” value in the data set on cyp 1A1 is “totalement supprimée”.

Consider `Clc1cc2c(cc1Cl)Oc1cc(Cl)c(Cl)cc1O2` [TCDD, 2,3,7,8-tétrachlorodibenzo (p)dioxine, reference compound], for which the fold induction at 0.001 µM in data set [5] (Homo sapiens, T47D, T-47D, read-out: induction du promoteur de VIH (facteur)) is 3. Also, the Kd at récepteur AhR was 3 nM.

`O=c1cc(-c2ccccc2)oc2c1ccc1ccccc12` [α-NF, alpha-7,8-benzoflavone, reference compound]: at récepteur AhR, the Kd was 3 nM. Besides, the “effets agonistes / antagonistes” value in the data set with CYP1A1 is listed as “effets agonistes autant qu'antagonistes”. The “répression de l'induction indirecte des enzymes de phase II (NAD(P)H quinone réductase) provoquée par la dioxine” value in data set [7] is on record as “ne répriment l'induction indirecte”.
